From ChEMBL document CHEMBL1201862, “PubChem BioAssay data set” (2004)
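96-well plates; 48 h exposure; 5 concentrations. Endpoints by linear interpolation between flanking doses. Not reached: highest tested concentration assigned. At the GI50, growth is halved.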 Activity calls are given as the source filed them. Rule as the data show it: active = GI50 up to about 1.1 µM and inactive = higher.

Tests used:
Experiment in all cases: growth of human tumour cells (NCI), 48 h
RXF 393 = test system: RXF 393
SK-OV-3 = test system: SK-OV-3
T47D = test system: T47D
UACC-62 = test system: UACC-62
COLO 205 = test system: COLO 205
NCI-H23 = test system: NCI-H23
MCF7 = test system: MCF7
A498 = test system: A498
Malme-3M = test system: Malme-3M
MOLT-4 = test system: MOLT-4
UO-31 = test system: UO-31
RPMI-8226 = test system: RPMI-8226
NCI-H460 = test system: NCI-H460
NCI-H226 = test system: NCI-H226
NCI-H522 = test system: NCI-H522
ACHN = test system: ACHN
MDA-MB-231 = test system: MDA-MB-231
SK-MEL-28 = test system: SK-MEL-28
LOX IMVI = test system: LOX IMVI
SK-MEL-5 = test system: SK-MEL-5
NCI/ADR-RES = test system: NCI/ADR-RES
HOP-62 = test system: HOP-62
UACC-257 = test system: UACC-257
786-0 = test system: 786-0
HOP-92 = test system: HOP-92
U-251 = test system: U-251
OVCAR-8 = test system: OVCAR-8
CAKI-1 = test system: CAKI-1
SNB-19 = test system: SNB-19
HCT-116 = test system: HCT-116
MDA-MB-435 = test system: MDA-MB-435
IGROV-1 = test system: IGROV-1
EKVX = test system: EKVX
SF-268 = test system: SF-268
A549 = test system: A549
Hs-578T = test system: Hs-578T
TK-10 = test system: TK-10
SK-MEL-2 = test system: SK-MEL-2
OVCAR-4 = test system: OVCAR-4
BT-549 = test system: BT-549
M14 = test system: M14
KM12 = test system: KM12
HCT-15 = test system: HCT-15
K562 = test system: K562
SN12C = test system: SN12C
HCC 2998 = test system: HCC 2998
SNB-75 = test system: SNB-75
HT-29 = test system: HT-29
SF-295 = test system: SF-295
OVCAR-5 = test system: OVCAR-5
PC-3 = test system: PC-3
MDA-N = test system: MDA-N
DU-145 = test system: DU-145
OVCAR-3 = test system: OVCAR-3
SW-620 = test system: SW-620

In the case of `Cn1ncc2c(NCCc3ccccc3)nc(Cl)nc21`, the GI50 (RXF 393) is reported as 17.1 µM (inactive), the GI50 (SK-OV-3) is reported as 19.5 µM (inactive) and the GI50 (T47D) is reported as 11.4 µM (inactive). For the same molecule, the GI50 (UACC-62) was 5.97 µM (inactive), the GI50 (COLO 205) was 17.3 µM (inactive) and the GI50 (NCI-H23) was 24.8 µM (inactive). For the same molecule, the GI50 (MCF7) was 30 µM (inactive), the GI50 (A498) was 17.7 µM (inactive) and the GI50 (Malme-3M) was 58.9 µM (inactive). For the same molecule, the GI50 (MOLT-4) was 14.7 µM (inactive), the GI50 (UO-31) was 19 µM (inactive) and the GI50 (RPMI-8226) was 13.7 µM (inactive). For the same molecule, the GI50 (NCI-H460) was 15.6 µM (inactive), the GI50 (NCI-H226) was 21.5 µM (inactive) and the GI50 (NCI-H522) was 21.9 µM (inactive). For the same molecule, the GI50 (ACHN) was 28.6 µM (inactive), the GI50 (MDA-MB-231) was 3.97 µM (inactive) and the GI50 (SK-MEL-28) was 28.7 µM (inactive). For the same molecule, the GI50 (LOX IMVI) was 16.7 µM (inactive), the GI50 (SK-MEL-5) was 17.6 µM (inactive) and the GI50 (NCI/ADR-RES) was 16.4 µM (inactive). For the same molecule, the GI50 (HOP-62) was 24.4 µM (inactive), the GI50 (UACC-257) was 2.48 µM (inactive) and the GI50 (786-0) was 23.4 µM (inactive). For the same molecule, the GI50 (HOP-92) was 15.3 µM (inactive), the GI50 (U-251) was 30.2 µM (inactive) and the GI50 (OVCAR-8) was 27.2 µM (inactive). For the same molecule, the GI50 (CAKI-1) was 28.1 µM (inactive), the GI50 (SNB-19) was 44.9 µM (inactive) and the GI50 (HCT-116) was 27.8 µM (inactive). For the same molecule, the GI50 (MDA-MB-435) was 20.6 µM (inactive), the GI50 (IGROV-1) was 33.1 µM (inactive) and the GI50 (EKVX) was 1.75 µM (inactive). For the same molecule, the GI50 (SF-268) was 38.2 µM (inactive), the GI50 (A549) was 20.4 µM (inactive) and the GI50 (Hs-578T) was 8.93 µM (inactive). The GI50 (TK-10) was 20.9 µM (inactive), the GI50 (SK-MEL-2) was 10.7 µM (inactive) and the GI50 (OVCAR-4) was 18.8 µM (inactive). The GI50 (BT-549) was 23.5 µM (inactive), the GI50 (M14) was 15 µM (inactive) and the GI50 (KM12) was 26.2 µM (inactive). For the same molecule, the GI50 (HCT-15) was 25.4 µM, the GI50 (K562) was 17.6 µM (inactive) and the GI50 (SN12C) was 44.6 µM (inactive). For the same molecule, the GI50 (HCC 2998) was 18.8 µM (inactive), the GI50 (SNB-75) was 21.1 µM (inactive) and the GI50 (HT-29) was 14.7 µM (inactive). The GI50 (SF-295) was 16.4 µM (inactive), the GI50 (OVCAR-5) was 14 µM (inactive) and the GI50 (PC-3) was 17.9 µM (inactive). For the same molecule, the GI50 (MDA-N) was 23.2 µM (inactive), the GI50 (DU-145) was 44.9 µM (inactive) and the GI50 (OVCAR-3) was 33.3 µM (inactive). For the same molecule, the GI50 (SW-620) was 23.3 µM (inactive).
